# Reference: patent US20240115645A1, “DRUG FOR TREATING UROLITHIASIS-RELATED DISEASE, AND PREPARATION METHOD THEREFOR” (HONG ZHANG, priority 2021, published 2024)
# What was measured:
# SD rats [1] = assay: Kidney lesions under HE microscope in rat urolithiasis model (1% ethylene glycol + 2% ammonium chloride); assay type: in vivo; design: key to Renal tubule dilation lesions / Renal interstitial inflammatory cell infiltration / Calcium oxalate crystal aggregation: No lesion was represented by −; mild lesion was +; lesion was ++; significant lesion was +++; conditions: potassium sodium hydrogen citrate group
# Source text: (§1) II. Experimental example of pharmacological activity • 1. Preparation of test samples • (1) High-dose group test sample: the water-extracted, 0-25% ethanol gradient eluent by polyamide column prepared in Preparation Example 5 was concentrated and dried to obtain the active ingredient extract. A solution with a density of about 1.2 g/ml was formulated, and the concentration of the effective substance measured by the pharmacopoeia standard and the absorbance method (using rutin as a standard substance to make a standard curve) is about 130.4 mg/ml. • (2) Medium-dose group test sample: the high-dose group sample was diluted once to obtain the middle-dose group test sample. • (3) Low-dose group test sample: the middle-dose group sample was dilute once to obtain the low-dose group test sample. • (4) Positive control group test sample: potassium sodium hydrogen citrate aqueous solution with a concentration of 100 mg/ml, 3 ml per day, equivalent to 300 mg/d. • 2. Animal experiments • 2.1. Experimental animals and feeding conditions
# 36 male SD rats of SPF grade, 6-8 weeks old, 200-250 g. • 2.2.3 Model preparation
# SD rats were fed adaptively for 7 days, and all groups (except the normal group) were administered 1% ethylene glycol (by drinking water)+2% ammonium chloride (by intragastric administration) 2 ml/rat to establish a model for 28 consecutive days. • 2.2.4 Experimental grouping and processing
# 36 male SD rats were randomly divided into 6 groups according to body weight, 6 rats in each group. These are normal group, model group, potassium sodium hydrogen citrate group, traditional Chinese medicine extract (low, medium, high) dose group. During the modeling process, 3 ml of the drug was administered by intragastric administration every day, and the drug included the positive control drug and the purified part through the polyamide column. The animals were euthanized after 4 weeks. • 2.2.5 Kidney
# The kidney tissues were peeled off in vivo, the kidney on one side was stored in a cryopreservation tube at −80° C. for tissue homogenate to detect Ca2+ concentration, and the kit operation steps were the same as above; the […] kidney on the other side was fixed in formalin solution for tissue sectioning to perform HE staining. • (1) The steps for making paraffin sections were as follows:
# (1) fixation, (2) trimming, (3) dehydration, (4) transparency, (5) wax immersion, (6) embedding, (7) slicing, (8) baking slices, (9) preservation: packed in boxes and stored at room temperature. • (2) HE staining steps were as follows:
# (1) dewaxing and rehydration, (2) dyeing, (3) dehydration, transparency, mounting,
# (4) staining results: the nucleus was blue, the cytoplasm was pink, and the red blood cells were bright red. • 3. Test results • 3.1. Positive test results for calcium oxalate crystals in rat urine
# The results consisted of three parts: calcium oxalate crystal aggregation, renal tubule dilation lesions, and chronic renal interstitial inflammatory cell infiltration.
# SD rats [2] = assay: Ca2+ concentration in serum, urine and kidney tissue of urolithiasis model rats; assay type: in vivo, rat; conditions: potassium sodium hydrogen citrate drug group, 300 mg/d
# Source text: as §1
# (§2) 36 male SD rats of SPF grade, 6-8 weeks old, 200-250 g. • 2.2.3 Model preparation […]
# SD rats [3] = assay: Serum CRE and BUN levels of urolithiasis model rats; assay type: in vivo, rat; conditions: all groups, 4 weeks
# Source text: as §1, §2
# [4] = 100 mg/ml, 3 ml per day (300 mg/d) intragastric, 4 weeks
smiles,measurement,setting,value
O.O=C([O-])CC(O)(CC(=O)[O-])C(=O)O.O=C([O-])CC(O)(CC(=O)[O-])C(=O)O.O=C([O-])CC(O)(CC(=O)[O-])C(=O)O.O=C([O-])CC(O)(CC(=O)[O-])C(=O)[O-].O=C([O-])CC(O)(CC(=O)[O-])C(=O)[O-].[K+].[K+].[K+].[K+].[K+].[K+].[Na+].[Na+].[Na+].[Na+].[Na+].[Na+] [potassium sodium hydrogen citrate],Calcium oxalate crystal aggregation,SD rats [1]; [4],++
same,Renal interstitial inflammatory cell infiltration,SD rats [1]; [4],+
same,Renal tubule dilation lesions,SD rats [1]; [4],++
same,"brownish yellow calcium oxalate crystals under the HE microscope, compared with the model group",SD rats [1]; 300 mg/d,did not decrease significantly
same,inflammatory cell infiltration in the renal interstitium under the HE microscope,SD rats [1]; 300 mg/d,occasionally seen
same,"renal tubule dilatation under the HE microscope, compared with the model group",SD rats [1]; 300 mg/d,improved
same,"Ca2+ concentration in kidney tissue, difference compared with the model group and the normal group",SD rats [2],very significant difference (P<0.01)
same,"Ca2+ concentration in kidney tissue, rank among groups",SD rats [2],highest concentration
same,"BUN levels in serum, order of groups from high to low",SD rats [3],model group>low dose treatment group>potassium sodium hydrogen citrate drug group>medium dose treatment group>high dose treatment group>normal group
same,"CRE levels in serum, order of groups from high to low",SD rats [3],model group>medium dose treatment group>potassium sodium hydrogen citrate drug group>low dose treatment group>high dose treatment group>normal group
